From patent US20220175761A1, “BI-LIGAND DRUG CONJUGATE AND USE THEREOF” (COHERENT BIOPHARMA (SUZHOU), LIMITED, priority 2019, published 2022) come the findings set out here.

The structures appear in SMILES notation. Square brackets hold non-standard residues; d marks the D form. Peptide text beside a SMILES is read from it. * marks the point of attachment. Dolaproine = CO[C@@H]([C@@H]1CCCN1)[C@@H](C)C(=O)O; Dil = CC[C@H](C)[C@H](NC)[C@@H](CC(=O)O)OC; X1 = C[C@@H](N*)[C@@H](O)c1ccccc1; NMeV = CN[C@H](C(=O)O)C(C)C

Data set [1] in a line: Body weight and clinical observation in the LU2505 study. It is filed as in vivo, BALB/c nude mice. The conditions noted are these: 0.375 mg/kg on day 1, 8, 15, D22. An excerpt:
(§1) The active substance of test sample CBP-1018 is CB-20BK, which is obtained by mixing CB-20BK with auxiliary materials and then lyophilizing same.

Data set [2] concerns lung cancer PDX model LU2505. The data set can be described thus: Effectiveness in lung cancer LU2505 model (PDX model). It is filed as in vivo, BALB/c nude mice.
Text: as §1

Data set [3] has as its system MDA-MB-468 (human breast cancer cells). The data set can be described thus: Inhibition of cell line proliferation, CCK8. Type of data set: cell-based. The conditions noted are these: MDA-MB-468, 68-72 hours, CCK8.
The subject of data set [4] is LU1206. As to the kind of experiment: Tumor growth inhibition in HuPrime xenograft lung cancer PDX model. It is filed as in vivo, BALB/c-nude mice. The conditions noted are these: 3 mg/kg, tail vein. How it is done:
(§2) Experimental scheme: The tumor tissue mass were prepared and subcutaneously inoculated into the anterior right flank of BALB/c-nude mice. When the tumor volume expanded to 80-160 mm^3, a randomized grouping was performed, and a model control group and administration groups were set. The mice were administrated from the first day of grouping, wherein the administration dose was adjusted according to the latest weight measurement. The mice were administrated via tail vein injection at an administration volume of 10 μl/g and an administration dosage of 3 mg/kg. After grouping and administration, the effects of tumor growth and treatment on normal behaviors of animals, specifically including the activity of experimental animals, food intake and drinking status, weight gain or loss status, and other abnormal conditions in eyes, hair, etc., were monitored. After grouping and administration, the weight of mice was measured twice a week to calculate the rate of weight change; at the same time, the long diameter and short diameter of the tumor were measured with a vernier caliper, and the tumor volume, relative tumor proliferation rate, tumor volume inhibition rate and other indicators were calculated. The formula of tumor volume is TV=0.5 a×b^2, wherein a is the long diameter of a tumor and b is the short diameter of a tumor.

In data set [5] the test system is LU1380. The description is as above. It is filed as in vivo, BALB/c-nude mice. The conditions noted are these: 3 mg/kg, tail vein. Here is the method:
as §2

For data set [6], the system named is LU0367. The data set is described as above. The conditions noted are these: 3 mg/kg, tail vein. It is filed as in vivo, BALB/c-nude mice. Here is the method: as §2
Data set [7] relates to BR0438. As to the kind of experiment: Tumor growth inhibition in HuPrime xenograft breast cancer PDX model. It is filed as in vivo, BALB/c-nude mice. The conditions noted are these: 3 mg/kg, tail vein. Here is the method:
as §2

Data set [8] relates to BR1283. The description is as above. It is filed as in vivo, BALB/c-nude mice. The conditions noted are these: 3 mg/kg, tail vein. Here is the method:
as §2

For data set [9], the system named is KB, MIA paca-2, HCC1954, CALU-3 and DU145 cell lines (CDX tumor models). The data set can be described thus: Pharmacodynamic study 1 of CB-20BK in CDX models. Type of data set: in vivo, BALB/c-nude mice. The conditions noted are these: tail vein injection. Here is the method:
CB-20BK lyophilized powder was weighed, dissolved with PBS and prepared into a sample mother solution, and the mother solution was diluted with a physiological saline for injection to a sample solution with a working concentration for later use.
Main cell lines: KB human oral epidermoid carcinoma cells, MIA paca-2 human pancreatic cancer cells, HCC1954 human breast cancer cells, CALU-3 human lung adenocarcinoma cells and DU145 human prostate cancer cells.
Model construction: The cells were resuscitated, cultured, collected, counted, and subcutaneously injected into the right flank of BALB/c-nude mice. When the tumor grew and expanded to 80-160 mm^3, grouping and administration were performed, or rapidly expanded tumor masses were transferred and injected to mice for scale up.
Grouping: When the tumor grew to about 80-160 mm^3 on average, a grouping was performed, and a model control group and different doses of administration groups were set.
Administration: The mice were administrated via tail vein injection.
The weight of mice and the long diameter (a) and short diameter (b) of tumor mass were measured twice a week. The formula for the calculation of tumor volume (TV) is: TV=½×a×b^2.

Where [10] appears, read: 0.375 mg/kg on day 1, 8, 15, D22.

As usually defined, the IC50 is the point on the concentration scale where inhibition reaches its midpoint. As for `CC[C@H](C)[C@@H]([C@@H](CC(=O)N1CCC[C@H]1[C@H](OC)[C@@H](C)C(=O)N[C@H](C)[C@@H](O)c1ccccc1)OC)N(C)C(=O)[C@@H](NC(=O)[C@@H](NC)C(C)C)C(C)C` [MMAE, monomethyl auristatin E] (H-[NMeV]V[Dil][Dolaproine]-X1), the Weight in [1] is recorded as 23.5 g. Moreover, the “tumor growth inhibition effect (in words)” value in [2] (0.375 mg/kg) is recorded as “clear tumor growth inhibition effect”. In addition, in [2] (setting [10]), the “Tumor growth inhibition rate TGI %” value is 48.97% and the Tumor volume was found to be 1132.61 mm^3. Further, the Tumor weight in [2] (0.375 mg/kg on day 1, 8, 15, D29) is reported as 1597.1 (D29) mg. In data set [3], this compound had a half-inhibitory concentration (IC50) of 2 nM.
By TGI is commonly meant how far tumour growth fell short of that in controls. A low value points to little slowing of growth. For the compound `CC[C@H](C)[C@@H]([C@@H](CC(=O)N1CCC[C@H]1[C@H](OC)[C@@H](C)C(=O)N[C@H](C)[C@@H](O)c1ccccc1)OC)N(C)C(=O)[C@@H](NC(=O)[C@H](C(C)C)N(C)C(=O)OCc1ccc(NC(=O)C(CCCNC(N)=O)NC(=O)[C@@H](NC(=O)CCCCCN2C(=O)CC(SC[C@H](NC(=O)[C@H](CCCCN)NC(=O)[C@H](CC(=O)O)NC(=O)[C@H](CC(=O)O)NC(=O)Cc3ccc(CNC(=O)NCCCC[C@H](NC(=O)N[C@@H](CCC(=O)O)C(=O)O)C(=O)O)cc3)C(=O)N[C@@H](CCCCNC(=O)CC[C@H](NC(=O)c3ccc(NCc4cnc5[nH]c(N)nc(=O)c5n4)cc3)C(=O)O)C(N)=O)C2=O)C(C)C)cc1)C(C)C` (stereo partly drawn) [CB-20BK], the inhibition of tumour growth (TGI) is recorded as 90.89% in data set [4]; 30.02% in data set [5]; 71.34% in data set [6]; 70.74% in data set [7]; 96.49% in [8]. Moreover, the “inhibitory effect in CDX tumor models (tumor volume)” value in [9] was “good inhibitory effect”.
